For one series, the system named is YUMM1.7 melanoma cells. The series can be described thus: YUMM1.7 proliferation assay (4 day growth). Type of series: cell-based. Particulars: 500 nM; for doubling compared with that seen with the vehicle / Doublings: 4 days; for Doublings / cell count after 4 days of growth (single replicates) / average cell count after 4 days of growth: starting cell number 15,000; for cell count after 4 days of growth (single replicates): 5 replicates; for average cell count after 4 days of growth: average of 5 replicates. The protocol: YUMM1.7 cells were cultured for at least 1 passage after thawing and were cultured in DMEM with 5% FBS (Invitrogen) and 1% antibiotic-antimycotic (gibco) at 37C 5% CO2. Proliferation assays were performed by plating 15,000 cells in 12-well plates with 5 replicates per condition tested. Media and drugs were refreshed on Day 2. On Day 4, cells were trypsinized using 0.25 ml 0.05% Trypsin with EDTA (Invitrogen) for 5 minutes to detach from the plate, mixed with 0.75 ml of culture media, and counted using a hemocytometer.
Starting cell numbers were 15,000.

Series [1] can be described thus: Solubility measurement in pH buffers. The series is classed as physicochemical.
Series [2] in a line: LogD7.4 by shake-flask method (pH 7.4 phosphate buffer / n-octanol). The series is classed as physicochemical. Particulars: for Concentration in pH buffer 7.4: aqueous phase. As for the experimental part: Log D7.4 was measured with the solvent systems of pH 7.4 phosphate buffer and n-octanol by shake-flask method.
Another series has as its target T1, OATP1B1 (Homo sapiens, UniProt Q9Y6L6).
T1 sequence (Q9Y6L6 1-691): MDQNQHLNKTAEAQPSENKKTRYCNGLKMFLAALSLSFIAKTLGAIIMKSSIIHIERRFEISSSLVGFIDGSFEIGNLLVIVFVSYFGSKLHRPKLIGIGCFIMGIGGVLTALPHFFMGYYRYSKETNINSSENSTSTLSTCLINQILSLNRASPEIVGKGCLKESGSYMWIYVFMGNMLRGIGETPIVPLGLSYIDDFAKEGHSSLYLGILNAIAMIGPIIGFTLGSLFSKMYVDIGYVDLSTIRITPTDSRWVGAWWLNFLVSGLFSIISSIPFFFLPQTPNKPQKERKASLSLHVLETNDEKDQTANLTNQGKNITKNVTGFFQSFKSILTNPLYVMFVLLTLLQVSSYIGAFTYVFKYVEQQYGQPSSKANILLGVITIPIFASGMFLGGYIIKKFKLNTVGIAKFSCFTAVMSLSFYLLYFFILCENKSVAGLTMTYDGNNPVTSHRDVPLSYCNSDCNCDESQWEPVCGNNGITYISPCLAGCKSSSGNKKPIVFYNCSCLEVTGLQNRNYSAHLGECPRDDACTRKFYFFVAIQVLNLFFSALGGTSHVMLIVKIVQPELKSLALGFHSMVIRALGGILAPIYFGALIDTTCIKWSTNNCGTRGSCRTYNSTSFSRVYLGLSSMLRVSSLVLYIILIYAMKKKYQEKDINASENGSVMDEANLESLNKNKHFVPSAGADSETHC
The series can be described thus: Drug transporter fluorometric inhibition, OATP1B1. Type of series: in vitro ADME. As for the experimental part:
Drug transporter (fluorometric inhibition)
The percent of control was calculated using the following equation. The percent of inhibition was calculated by subtracting the percent of control from 100. The IC50 value (concentration causing a half-maximal inhibition of the control value) was determined by non-linear regression analysis of the concentration-response curve using the Hill equation.
Compound is the individual reading in the presence of the test compound. T1 is the mean reading in the absence of the test compound. Background (for P-gp and BCRP) is the mean reading in the presence of the highest effective concentration of the reference inhibitor. Background (for OATP1B1, OATP1B3, OAT1, OAT3, and OCT2) is the mean reading in the absence of both the test compound and the substrate.

The test system of another series is CYP1A2. The series can be described thus: Cytochrome P450 induction in hepatocytes, CYP1A2. Particulars: hepatocytes from three different human cell lines; 1 μM, 10 μM and 100 μM. The series is classed as in vitro ADME.
A further series deals with CYP3A4. The series can be described thus: Cytochrome P450 induction in hepatocytes, CYP3A4. The series is classed as in vitro ADME. As to conditions: hepatocytes from three different human cell lines; 1 μM, 10 μM and 100 μM.
In another series the target is OPRM1 (Homo sapiens, UniProt P35372). The series can be described thus: Off target selectivity assay, OPRM1. Type of series: cell-based. As to conditions: dose response, concentrations up to 10 μM; read-out: IC50 or EC50 on OPRM1. The protocol: (§1) Final assay vehicle concentration was 1%.
(§2) For Gi coupled GPCRs, EC80 forskolin was included.
(§3) DMSO concentration for all readouts is ≤0.2%.
(§4) Probenicid was prepared fresh. Cells were loaded with dye prior to testing.

The next series addresses T2, ADRA2A (Homo sapiens, UniProt P08913).
T2 sequence (P08913 1-465): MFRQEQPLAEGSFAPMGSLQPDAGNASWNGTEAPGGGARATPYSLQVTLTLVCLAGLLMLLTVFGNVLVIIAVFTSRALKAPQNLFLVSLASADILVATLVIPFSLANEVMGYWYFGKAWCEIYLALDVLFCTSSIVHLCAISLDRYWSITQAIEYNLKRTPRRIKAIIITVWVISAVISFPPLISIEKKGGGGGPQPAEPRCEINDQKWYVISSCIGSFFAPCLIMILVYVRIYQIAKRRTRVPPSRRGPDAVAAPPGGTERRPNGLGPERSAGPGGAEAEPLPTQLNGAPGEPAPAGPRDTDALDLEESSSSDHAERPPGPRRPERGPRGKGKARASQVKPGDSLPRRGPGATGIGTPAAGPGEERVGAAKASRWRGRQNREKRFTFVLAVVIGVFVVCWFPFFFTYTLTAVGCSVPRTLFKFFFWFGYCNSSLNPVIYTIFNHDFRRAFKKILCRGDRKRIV
The series can be described thus: Off target selectivity assay, ADRA2A. Particulars: dose response, concentrations up to 10 μM; read-out: IC50 or EC50 on ADRA2A. Type of series: cell-based. The protocol: as §1, §2, §3, §4

The next series has as its target T3, HTR1A (Homo sapiens, UniProt P08908).
T3 sequence (P08908 1-422): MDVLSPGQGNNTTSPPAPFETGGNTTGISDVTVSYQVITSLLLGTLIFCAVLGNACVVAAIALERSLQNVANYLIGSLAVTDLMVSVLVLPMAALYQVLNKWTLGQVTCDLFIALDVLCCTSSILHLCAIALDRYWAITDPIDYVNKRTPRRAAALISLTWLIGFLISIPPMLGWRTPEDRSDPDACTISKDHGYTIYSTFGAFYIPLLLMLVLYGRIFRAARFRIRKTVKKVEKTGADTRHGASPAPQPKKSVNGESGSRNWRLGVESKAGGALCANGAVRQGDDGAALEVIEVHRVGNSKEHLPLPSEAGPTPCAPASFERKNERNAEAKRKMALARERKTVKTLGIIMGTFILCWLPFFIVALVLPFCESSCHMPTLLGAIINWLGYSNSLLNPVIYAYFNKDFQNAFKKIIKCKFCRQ
The series can be described thus: Off target selectivity assay, HTR1A. The series is classed as cell-based. Particulars: dose response, concentrations up to 10 μM; read-out: IC50 or EC50 on HTR1A. The protocol:
as §1, §2, §3, §4

Setting [3] is: shake-flask, single samples #1-3.

One may read the solubility as the dissolved amount per volume that the medium holds. What is called logP is the decadic logarithm of the partition coefficient of the neutral form, usually between octanol and water. Broadly, the logD is the decadic logarithm of the distribution of all forms, ionised or not, between an organic phase and buffer at a given pH. A higher logD goes with higher lipophilicity. By inhibition is commonly meant the relative decrease from the control value, in per cent. A high value points to strong suppression. For orientation: pIC50 means −log10 of the IC50, conventionally taken in molar units.

pIC50: −log10 of the molar value. Where “and” joins values, the source holds several entries; their conditions need not be identical. Identical values can stand only once. Where only a bound is given, the exact number is not on record here.

OPRM1, sequence (P35372 whole entry): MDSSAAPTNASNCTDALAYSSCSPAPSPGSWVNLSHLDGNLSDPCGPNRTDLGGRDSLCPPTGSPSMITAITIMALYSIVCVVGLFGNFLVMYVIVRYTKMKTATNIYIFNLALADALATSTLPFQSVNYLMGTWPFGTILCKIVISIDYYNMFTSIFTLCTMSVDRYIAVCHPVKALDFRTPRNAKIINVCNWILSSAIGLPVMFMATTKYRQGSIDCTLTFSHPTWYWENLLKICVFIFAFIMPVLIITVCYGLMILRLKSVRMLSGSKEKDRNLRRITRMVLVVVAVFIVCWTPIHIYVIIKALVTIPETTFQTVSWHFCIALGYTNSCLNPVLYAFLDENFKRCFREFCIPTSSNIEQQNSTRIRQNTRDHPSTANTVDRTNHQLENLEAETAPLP

`CC(=O)c1ccc2c(c1)[C@@H]1C=CC[C@@H]1[C@H](c1cc3c(cc1Br)OCO3)N2` (single isomer, unassigned) [SRR G-1]: in the series on YUMM1.7 melanoma cells, the “doubling compared with that seen with the vehicle” value is reported as “less than 1/10”; the Doublings is recorded as 0.6; the “cell count after 4 days of growth (single replicates)” value is 2 tens of thousands (3×) and 3 tens of thousands (2×); the “average cell count after 4 days of growth” value is given as 2.4 tens of thousands. Besides, the solubility at 24 h in [1] (pH 2, aqueous buffer, thermodynamic from solid, all pH buffers 2.0 to 8.0, 37° C., 24 hrs, read-out: solubility at pH 2.0-8.0) is less than 0.72 µg/mL. For the same compound, the “form change in all the pH buffers” value in [1] (pH 2.0 to 8.0, after 24 hrs) is recorded as “No form change was observed”. Besides, the “LogP*” value in series [2] (LogP = LogD(pH) + Log [1 + 10^(pKa −pH)]) is greater than 3.22. Further, in series [2] (n-octanol / pH 7.4 phosphate buffer, pH 7.4, LogP = LogD(pH) + Log [1 + 10^(pKa −pH)]), the logP was greater than 3.22. The compound also showed a pH-dependent lipophilicity (logD) in series [2] (n-octanol / pH 7.4 phosphate buffer, shake-flask, pH 7.4 phosphate buffer and n-octanol) greater than 3.22. Also, in series [2] (setting [3]), the “Concentration in pH buffer 7.4” value is less than 0.82 μg/mL; the Concentration in n-octanol is 1370 µg/mL and 1340 µg/mL; the LogD7.4 was >3.22 and >3.21. The “Concentration in pH buffer 7.4” value in series [2] (shake-flask, single samples #1-3, listed as SRR G-1 freebase) is less than 0.82 μg/mL. Moreover, the “Average of LogD7.4” value in series [2] (shake-flask, pH 7.4 phosphate buffer and n-octanol) is greater than 3.22. Moreover, at OATP1B1, 10 µM produced 82.5% inhibition. Moreover, the CYP1A2 induction entry in the series with CYP1A2 was “induced at both 1 μM and 10 μM in only 1 of the 3 cell lines”. Also, the CYP3A4 induction result in the series on CYP3A4 is reported as “induced at only 10 μM in 2 of the 3 cell lines”. In addition, the pIC50 on OPRM1 was 5.18.

Turning to `CC(=O)c1ccc2c(c1)[C@H]1C=CC[C@H]1[C@@H](c1cc3c(cc1Br)OCO3)N2` [RSS G-1, 1-((3aR,4S,9bS)-4-(6-bromobenzo[d][1,3]dioxol-5-yl)-3a,4,5,9b-tetrahydro-3H-cyclopenta[c]quinolin-8-yl)ethan-1-one], in the series with YUMM1.7 melanoma cells, the “doubling compared with that seen with the vehicle” value is recorded as “approximately the same number of doublings as the vehicle”; the Doublings was 7.9; the “cell count after 4 days of growth (single replicates)” value was 83 tens of thousands and 94 tens of thousands and 79 tens of thousands and 111 tens of thousands and 107 tens of thousands; the “average cell count after 4 days of growth” value was 94.8 tens of thousands. For the same compound, at OATP1B1, the inhibition at 10 µM was 91.2%. Also, the CYP1A2 induction entry in the series with CYP1A2 is “induced at both 10 μM and 100 μM in 2 of the 3 cell lines”. The negative logarithm of the IC50 (pIC50) at ADRA2A was 5.68. Besides, at HTR1A, the pIC50 was 5.68.
